pKi: −log10 of the molar value. Where a name gives a salt, the structure may show the parent alone.
Biological target: rat 5-HT7 receptor (Rattus norvegicus (Rat), UniProt P32305)
Test: r5-HT7 binding assay, competitive radioligand binding with [3H]5-CT
Description: Receptor binding was performed using membrane fractions prepared from the HEK-293 cell line recombinantly expressing rat 5-HT7 receptors (NCBI accession NM_022938). Compound affinity for the rat 5-HT7 receptor subtype was evaluated by competitive radioligand binding assays using 5-carboxamido[^3H]tryptamine ([^3H]5-CT) (Amersham Biosciences, cat. 90000403) detection. HitHunter™ cAMP assays are in-vitro based competitive immunoassays. The assay was performed on the HEK-293 cell line stably transfected with r5-HT7 receptor. Cells were pre-incubated with test compounds for 10 minutes. For antagonist testing, the cells were then challenged with 100 nM 5-CT for 20 minutes. Cells were then lysed and cAMP measured according to manufacturers protocol (Amersham, cat. NET791250UC) or [^3H]mesulergine (Amersham, cat. TRK1041). The assay was performed on membranes prepared from HEK-293 cells stably transfected with h5-HT6. Following centrifugation, membranes were resuspended and incubated for 60 min at room temperature with 1.7 nM [^3H]LSD in the presence of increasing concentration of test compounds. Nonspecific binding was defined in the presence of 10 μM clozapine (Tocris, cat. TRK1068). Homogenized HEK-293 membranes expressing the human SERT were incubated in 50 mM Tris-HCl (pH 7.5), 120 mM NaCl, 5 mM KCl with [^3H]-citalopram (3 nM) with or without test compounds. Nonspecific binding was determined in the presence of 10 μM fluoxetine. Radioactivity readouts and Ki values were performed as previously described for r5-HT7. […] Compounds were assayed in their free form or as salts, as indicated in the Examples section above.

[1] = rat 5-HT7 receptor, HEK-293 membranes

rat 5-HT7 receptor, sequence (P32305 1-435): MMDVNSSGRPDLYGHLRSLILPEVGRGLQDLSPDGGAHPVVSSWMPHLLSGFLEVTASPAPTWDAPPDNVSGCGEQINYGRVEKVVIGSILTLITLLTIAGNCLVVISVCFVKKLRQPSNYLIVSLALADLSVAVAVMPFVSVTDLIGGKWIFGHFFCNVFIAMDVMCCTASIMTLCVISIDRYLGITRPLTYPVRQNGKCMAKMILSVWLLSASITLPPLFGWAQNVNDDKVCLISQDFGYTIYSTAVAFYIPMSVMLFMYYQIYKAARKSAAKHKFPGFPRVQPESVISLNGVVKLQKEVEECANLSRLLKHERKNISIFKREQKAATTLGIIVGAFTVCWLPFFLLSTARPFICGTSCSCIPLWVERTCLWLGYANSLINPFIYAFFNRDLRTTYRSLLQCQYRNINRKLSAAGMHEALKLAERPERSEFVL

SMILES | pKi (rat 5-HT7, HEK-293 membranes) | pKi [1]
CC(Oc1ccc(Cl)cc1OC1CNC1)c1nccs1 (stereo not drawn) [Example 133, 2-[1-[2-(Azetidin-3-yloxy)-4-chloro-phenoxy]-ethyl]-thiazole] |  | 6.23
O=C(c1ccc(Cl)c(Cl)c1)c1ccc(Br)cc1OC1CNC1 [Example 293, [2-(Azetidin-3-yloxy)-4-bromo-phenyl]-(3,4-dichloro-phenyl)-methanone] | 7.29 | 
CC(Oc1ccc(Cl)cc1OC1CNC1)c1cccc(OC(F)(F)F)c1 (racemic) [Example 127, (±)-3-[5-Chloro-2-[1-(3-trifluoromethoxy-phenyl)-ethoxy]-phenoxy]azetidine] |  | 7.20
O=C(c1ccccc1)c1ccc(Br)cc1OC1CNC1 [Example 280] | 7.01 | 
CCOC(=O)c1cc(COc2ccc(Cl)cc2OC2CNC2)oc1C(F)(F)F [Example 76, 5-[2-(Azetidin-3-yloxy)-4-chloro-phenoxymethyl]-2-trifluoromethyl-furan-3-carboxylic acid ethyl ester] |  | 5.30
Fc1cccc(COc2ccc(Br)cc2OC2CN(C3CCC3)C2)c1 [Example 21, 3-[5-Bromo-2-(3-fluoro-benzyloxy)-phenoxy]-1-cyclobutyl-azetidine] |  | 7.70
COc1cccc(COc2ccc(Br)cc2OC2CCN(C)C2)c1 (racemic) [Example 96, (±)-3-[5-Bromo-2-(3-methoxy-benzyloxy)-phenoxy]-1-methyl-pyrrolidine] |  | 7.89
Clc1ccc(OC2CN(C(c3ccccc3)c3ccccc3)C2)c(OC2CNC2)c1 [Example 225, 3-[5-Chloro-2-(1-benzhydryl-azetidin-3-ol)-phenoxy]-azetidine] | 5.57 | 
Brc1ccc(Oc2ccc(Br)cc2OC2CNC2)cc1 [Example 250, 3-[5-Bromo-2-(4-bromo-phenoxy)-phenoxy]-azetidine] | 7.77 | 
CN1CCC(Oc2cc(Br)ccc2OCc2cccc(OS(C)(=O)=O)c2)C1 (racemic) [Example 99, (±)-Methanesulfonic acid 3-[4-bromo-2-(1-methyl-pyrrolidin-3-yloxy)-phenoxymethyl]-phenyl ester] |  | 8.30
Brc1ccc(Oc2ccc3ccccc3c2)c(OC2CNC2)c1 [Example 254, 3-[5-Bromo-2-(naphthalen-2-yloxy)-phenoxy]-azetidine] | 7.72 | 
CC1(Oc2cc(Br)ccc2OCc2cccc(C(F)(F)F)c2)CNC1 [Example 217] | 7.47 | 
CN1CCC(Oc2cc(Br)ccc2OCc2cccc(F)c2)C1 (racemic) [Example 97, (±)-3-[5-Bromo-2-(3-fluoro-benzyloxy)-phenoxy]-1-methyl-pyrrolidine] |  | 7.47
CC(C)N1CC(Oc2ccc(Cl)cc2OC2CNC2)C1 [Example 224, 3-[5-Chloro-2-(1-Isopropyl-azetidin-3-ol)-phenoxy]-azetidine] | 7.17 | 
CC(C)N1CC(Oc2cc(Br)ccc2C(=O)c2ccc3ccccc3c2)C1 [Example 288, [4-Bromo-2-(1-isopropyl-azetidin-3-yloxy)-phenyl]-naphthalen-2-yl-methanone] | 7.23 | 
CC(Oc1ccc(Cl)cc1OC1CN(C2CCC2)C1)c1cccc(C(F)(F)F)c1 (racemic) [Example 107, (±)-3-[5-Chloro-2-[1-(3-trifluoromethyl-phenyl)-ethoxy]-phenoxy]-1-cyclobutyl-azetidine] |  | 7.05
C[C@H](Oc1ccc(Cl)cc1OC1CN(Cc2ccccc2)C1)c1cccc(C(F)(F)F)c1 [Example 104, (S)-1-Benzyl-3-[5-chloro-2-[1-(3-trifluoromethyl-phenyl)-ethoxy]-phenoxy]-azetidine] |  | 6.78
OC1(COc2cc(Br)ccc2OCc2cccc(Cl)c2)CNC1 [Example 235, 3-[5-Bromo-2-(3-chloro-benzyloxy)-phenoxymethyl]-azetidin-3-ol] | 6.18 | 

Results, then the molecule that gave them:

pKi (rat 5-HT7, HEK-293 membranes) | pKi [1] | SMILES
6.58 |  | Clc1ccc(OCc2nc(C3CC3)no2)c(OC2CNC2)c1 [Example 241, 5-[2-(Azetidin-3-yloxy)-4-chloro-phenoxymethyl]-3-cyclopropyl-[1,2,4]oxadiazole hydrochloride]
 | 7.38 | CC(Oc1ccc(Cl)cc1OC1CCNCC1)c1ccccc1F (racemic) [Example 138, (±)-4-[5-Chloro-2-[1-(2-fluoro-phenyl)-ethoxy]-phenoxy]-piperidine]
 | 6.04 | CC(Oc1ccc(Cl)cc1OC1CNC1)c1cc(Cl)ccc1Cl (racemic) [Example 129, (±)-3-[5-Chloro-2-[1-(2,5-dichloro-phenyl)-ethoxy]-phenoxy]-azetidine trifluoroacetate]
 | 6.09 | CON=C1c2ccccc2CC1Oc1ccc(Cl)cc1OC1CNC1 (stereo not drawn) [Example 180, 2-[2-(Azetidin-3-yloxy)-4-chloro-phenoxy]-indan-1-one O-methyl-oxime]
 | 5.05 | O=C(O)c1cc(COc2ccc(Cl)cc2OC2CNC2)oc1C(F)(F)F [Example 75, 5-[2-(Azetidin-3-yloxy)-4-chloro-phenoxymethyl]-2-trifluoromethyl-furan-3-carboxylic acid trifluoroacetate]
 | 7.17 | CC(Oc1ccc(Cl)cc1OC1CNC1)c1ccccc1Cl (racemic) [Example 116, (±)-3-[5-Chloro-2-[1-(2-chloro-phenyl)-ethoxy]-phenoxy]-azetidine]
 | 6.60 | Clc1ccc(OCc2ccccc2Cl)c(O[C@@H]2CCNC2)c1 [Example 60, (R)-3-[5-Chloro-2-(2-chloro-benzyloxy)-phenoxy]-pyrrolidine]
 | 7.47 | Clc1ccc(OCc2ccccc2)c(OC2CCNCC2)c1 [Example 62, 4-(2-Benzyloxy-5-chloro-phenoxy)-piperidine]
6.34 |  | CCc1noc(COc2ccc(Cl)cc2OC2CNC2)n1 [Example 243, 5-[2-(Azetidin-3-yloxy)-4-chloro-phenoxymethyl]-3-ethyl-[1,2,4]oxadiazole hydrochloride]
 | 6.43 | CC(Oc1ccc(Cl)cc1OC1CNC1)c1cc(F)ccc1F (racemic) [Example 130, (±)-3-[5-Chloro-2-[1-(2,5-difluoro-phenyl)-ethoxy]-phenoxy]-azetidine trifluoroacetate]
 | 7.38 | Fc1ccc(COc2ccc(Cl)cc2OC2CNC2)c(F)c1 [Example 57, 3-[5-Chloro-2-(2,4-difluoro-benzyloxy)-phenoxy]-azetidine]
 | < 5.00 | O=C(O)C(Oc1ccc(Cl)cc1OC1CNC1)c1ccccc1 (stereo not drawn) [Example 149, [2-(Azetidin-3-yloxy)-4-chloro-phenoxy]-phenyl-acetic acid hydrochloride]
 | 6.68 | CC(Oc1ccc(Cl)cc1OC1CNC1)c1ccccc1C(F)(F)F (racemic) [Example 122, (±)-3-[5-Chloro-2-[1-(2-trifluoromethyl-phenyl)-ethoxy]-phenoxy]-azetidine]
6.63 |  | Cc1noc(COc2ccc(Cl)cc2OC2CNC2)n1 [Example 239, 5-[2-(Azetidin-3-yloxy)-4-chloro-phenoxymethyl]-3-methyl-[1,2,4]oxadiazole]
 | 7.28 | FC(F)(F)Oc1ccc(COc2ccc(Br)cc2OC2CNC2)cc1Cl [Example 11, 3-[5-Bromo-2-(3-chloro-4-trifluoromethoxy-benzyloxy)-phenoxy]-azetidine]
 | 6.96 | O=C(COc1ccc(Cl)cc1OC1CNC1)c1ccc(Cl)cc1 [Example 183, 2-[2-(Azetidin-3-yloxy)-4-chloro-phenoxy]-1-(4-chloro-phenyl)-ethanone]
 | 7.06 | Fc1cc(C(F)(F)F)ccc1COc1ccc(Cl)cc1OC1CNC1 [Example 48, 3-[5-Chloro-2-(2-fluoro-4-trifluoromethyl-benzyloxy)-phenoxy]-azetidine]
 | 7.57 | CC(C)N1CC(Oc2cc(F)ccc2OCc2cccc(Cl)c2)C1 [Example 204, 3-[2-(3-Chloro-benzyloxy)-5-fluoro-phenoxy]-1-isopropyl-azetidine]
 | 7.40 | CC(Oc1ccc(Cl)cc1OC1CNC1)c1cccc(SC(F)(F)F)c1 (racemic) [Example 120, (±)-3-[5-Chloro-2-[1-(3-trifluoromethylsulfanyl-phenyl)-ethoxy]-phenoxy]-azetidine]
6.99 |  | O=C(c1cccc(Cl)c1)c1ccc(Cl)cc1OC1CNC1 [Example 298, [2-(Azetidin-3-yloxy)-4-chloro-phenyl]-(3-chloro-phenyl)-methanone]
 | 8.05 | CN1CCC(Oc2cc(Br)ccc2OCc2cccc(Cl)c2)C1 (racemic) [Example 95, (±)-3-[5-Bromo-2-(3-chloro-benzyloxy)-phenoxy]-1-methyl-pyrrolidine]
 | 6.98 | CC(Oc1ccc(Cl)cc1OC1CNC1)c1cccc(C#N)c1 (racemic) [Example 125, (±)-3-[1-[2-(Azetidin-3-yloxy)-4-chloro-phenoxy]-ethyl]-benzonitrile]
 | 6.89 | FC(F)(F)Oc1ccc(COc2ccc(Cl)cc2OC2CNC2)cc1Cl [Example 41, 3-[5-Chloro-2-(3-chloro-4-trifluoromethoxy-benzyloxy)-phenoxy]-azetidine]
 | 6.33 | CC(Oc1ccc(Cl)cc1OC1CCNCC1)c1cccc(OC(F)(F)F)c1 (racemic) [Example 137, (±)-4-[5-Chloro-2-[1-(3-trifluoromethoxy-phenyl)-ethoxy]-phenoxy]-piperidine]
